# Laboratory results: PMC10244169, “Psychedelics promote plasticity by directly binding to BDNF receptor TrkB” (Nature Neuroscience, 2023)
# Legend:
# TrkB (WT) dimerization = target: T1, TrkB (WT) dimerization (Rattus norvegicus, UniProt Q63604); test: Split-luciferase PCA of TrkB dimerization in N2a cells; format: cell-based; conditions: for Group mean (Mean 2; Control:Vehicle = 100), fig 4f: n=8; for Group mean (Mean 2; Vehicle:vehicle = 100), fig 4d: n=20; for TrkB dimerization time course, group mean (time 0 = 100): TRKB.wt; for TrkB dimerization (PCA), group mean (vehicle = 100): WT; for Group mean (Mean 2; Vehicle:Vehicle = 100), fig 4e: n=48
# T1 construct: expressed in transfected cells; host or cells: N2a
# T1 sequence (Q63604 32-821): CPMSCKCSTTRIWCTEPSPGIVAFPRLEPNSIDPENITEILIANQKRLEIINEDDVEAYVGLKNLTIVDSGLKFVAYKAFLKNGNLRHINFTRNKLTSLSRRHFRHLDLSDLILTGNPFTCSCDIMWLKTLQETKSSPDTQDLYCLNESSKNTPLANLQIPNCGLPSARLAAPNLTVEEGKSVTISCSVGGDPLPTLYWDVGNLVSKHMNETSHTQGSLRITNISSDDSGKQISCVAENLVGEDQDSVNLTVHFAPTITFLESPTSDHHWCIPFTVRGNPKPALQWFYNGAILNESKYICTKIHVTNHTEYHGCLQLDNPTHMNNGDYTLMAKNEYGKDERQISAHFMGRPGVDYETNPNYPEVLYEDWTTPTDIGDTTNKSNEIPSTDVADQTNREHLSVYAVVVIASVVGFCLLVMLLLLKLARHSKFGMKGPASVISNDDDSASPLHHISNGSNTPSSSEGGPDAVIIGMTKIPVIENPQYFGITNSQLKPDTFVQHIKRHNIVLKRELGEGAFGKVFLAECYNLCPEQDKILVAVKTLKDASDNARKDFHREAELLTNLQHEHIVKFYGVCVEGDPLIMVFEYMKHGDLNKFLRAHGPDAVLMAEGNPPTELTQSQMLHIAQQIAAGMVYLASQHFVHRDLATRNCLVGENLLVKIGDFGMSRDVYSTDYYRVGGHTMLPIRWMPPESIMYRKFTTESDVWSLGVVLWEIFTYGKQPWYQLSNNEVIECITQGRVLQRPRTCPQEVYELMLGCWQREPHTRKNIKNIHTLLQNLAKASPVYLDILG
# T1 sequence (Q63604 32-821): as above
# Method: Ketanserin, M100907 and TRKB.FC were added to the media 10 min before treatment. The PCA method was performed as previously described[11],[75],[76]. Split humanized Gaussia princeps luciferase (hGLuc) was cloned on the C-terminus of the reporter proteins TrkB (WT and Y433F) and lipid raft Fyn. If the reporter proteins that carry complementary halves of the luciferase interact, the enzyme can refold in its functional conformation and, upon addition of its substrate, produce luminescence proportionally to the amount of reporter proteins interacting at a given time. N2a cells were seeded in 96-well plates with opaque walls and transparent bottom (PerkinElmer, ViewPlate 96). Cells were transfected with Lipofectamine 2000 according to the manufacturer’s instructions 24 h post-plating with the PCA pair plasmids: phGLuc(1C)-TrkB(WT) or the mutant phGLuc(1C)-TrkB(Y433F) and phGLuc(2 C)-TrkB(WT) for the dimerization experiments; phGLuc(1C)-lipid raft Fyn and phGLuc(2C)-TrkB(WT) or phGLuc(2C)-TrkB(Y433F) for the lipid raft localization experiments. Forty-eight hours post transfection, cells were treated (40 min, 37 °C) in phenol red-free Dulbecco’s modified Eagle medium without serum. […] The PCA signal was detected with the substrate for the luciferase, native coelenterazine, which was injected into each well directly in the plate reader at a final concentration of […].
# [1] = test system: dendritic arbor complexity of neuronal cultures; test: Dendritogenesis (Sholl analysis) in neuronal cultures (WT and Y433F^+/−); format: cell-based, mouse
# Method: In a separate set of experiments to study the effects of extracellular BDNF and 5-HT2A activation, cultures were also pretreated for 10 min with TrkB.FC (200 ng ml^−1) or M100907 (100 nM), respectively. Similar to treatment with the psychedelics, TrkB.FC and M100907 pretreatments were administered in cumulative doses and remained in the medium for the rest of the experiment. At DIV7, neurons were pre-incubated for 1 h with […] MgCl2 to prevent excitotoxicity, then neurons were transfected for the heterologous expression of mCherry. To minimize any possible interference of the transfection protocol upon the drug effect, transfection was done in the morning while treatment with psychedelics was always added in the evening. Twenty-four hours after transfection, neurons were fixed with 4% PFA for 20 min at room temperature, washed in PBS-T, blocked for 30 min with 3% BSA in PBS-T and incubated with chicken anti-MAP2 (Abcam, ab5392; 1:5,000, 1 h, room temperature). Then, coverslips were washed in PBS-T and incubated with Alexa Fluor 647-conjugated antibody goat anti-chicken (Invitrogen, A-21449; 1:1,000, 1 h, room temperature). Next, coverslips were washed in PBS-T and MilliQ water, and mounted in Dako fluorescence mounting medium (Agilent, S302380-2). Ten optical sections with a Z-step of 1.3 μm were acquired using a Zeiss LSM 710 confocal microscope with a LCI Plan/Neofluar 25×/0.8 lmm Korr DIC M27 objective. In the mCherry channel, the center of the soma was manually assigned and the number of dendritic intersections at fixed distances (every 5 μm) from the soma was automatically counted using the Sholl analysis plugin of ImageJ.
smiles,measurement,setting,value
"CCN(CC)C(=O)C1C=C2c3cccc4[nH]cc(c34)CC2N(C)C1 (stereo not shown) [LSD, lysergic acid diethylamide]",potentiation of BDNF effect on TrkB dimerization,TrkB (WT) dimerization; BDNF 0.1 ng ml^−1,potentiates the effects of very low concentrations of BDNF
same,"Group mean (Mean 2; Control:Vehicle = 100), fig 4f",TrkB (WT) dimerization; LSD 1nM with BDNF 0.1ng/ml,198.9
same,"Group mean (Mean 2; Vehicle:vehicle = 100), fig 4d",TrkB (WT) dimerization; LSD 1 nM with M100907,146.3
same,"Group mean (Mean 2; Control:Vehicle = 100), fig 4f","TrkB (WT) dimerization; LSD 1nM, Vehicle (no BDNF)",131.4
same,"Group mean (Mean 2; Vehicle:vehicle = 100), fig 4d","TrkB (WT) dimerization; LSD 1 nM, Vehicle (no M100907)",129.7
same,"Group mean (Mean 2; Vehicle:vehicle = 100), fig 4d",TrkB (WT) dimerization; LSD 10 nM with M100907,148
same,"Group mean (Mean 2; Vehicle:vehicle = 100), fig 4d","TrkB (WT) dimerization; LSD 10 nM, Vehicle (no M100907)",146.6
same,"Group mean (Mean 2; Vehicle:vehicle = 100), fig 4d",TrkB (WT) dimerization; LSD 100 nM with M100907,153.7
same,"Group mean (Mean 2; Vehicle:vehicle = 100), fig 4d","TrkB (WT) dimerization; LSD 100 nM, Vehicle (no M100907)",151.3
same,"Group mean (Mean 2; Vehicle:vehicle = 100), fig 4d",TrkB (WT) dimerization; LSD 1 µM with M100907,177.5
same,"Group mean (Mean 2; Vehicle:vehicle = 100), fig 4d","TrkB (WT) dimerization; LSD 1 µM, Vehicle (no M100907)",148.9
same,"TrkB dimerization time course, group mean (time 0 = 100)",TrkB (WT) dimerization; time 15,195
same,"TrkB dimerization time course, group mean (time 0 = 100)",TrkB (WT) dimerization; time 60,250.1
same,"TrkB dimerization time course, group mean (time 0 = 100)",TrkB (WT) dimerization; time 120,213
same,"TrkB dimerization time course, group mean (time 0 = 100)",TrkB (WT) dimerization; time 240,184.6
same,"TrkB dimerization time course, group mean (time 0 = 100)",TrkB (WT) dimerization; time 480,101
same,TrkB dimerization,"TrkB (WT) dimerization; WT TrkB, N2a cells, 1 nM to 1 µM",fast and long-lasting increase in dimerization
same,"TrkB dimerization (PCA), group mean (vehicle = 100)",TrkB (WT) dimerization; 1nM,126.2
same,"TrkB dimerization (PCA), group mean (vehicle = 100)",TrkB (WT) dimerization; 10nM,166.6
same,"TrkB dimerization (PCA), group mean (vehicle = 100)",TrkB (WT) dimerization; 100nM,191.5
same,"TrkB dimerization (PCA), group mean (vehicle = 100)",TrkB (WT) dimerization; 1uM,201.7
same,"Group mean (Mean 2; Vehicle:Vehicle = 100), fig 4e",TrkB (WT) dimerization; treatment alone (other factor Vehicle),209.8
same,"Group mean (Mean 2; Vehicle:Vehicle = 100), fig 4e",TrkB (WT) dimerization; with TrkB.FC,119.5
same,"6g: Mean (dendritogenesis, Sholl analysis)","[1]; WT neurons, vehicle mean 32.96",75.11
same,"6g: Mean Diff. (vehicle vs. treatment), Bonferroni's multiple comparisons test",[1]; WT:vehicle minus WT:treatment,-42.15
same,"6g: Mean (dendritogenesis, Sholl analysis)","[1]; Y433F+/- neurons, vehicle mean 44.44",47.24
same,"6g: Mean Diff. (vehicle vs. treatment), Bonferroni's multiple comparisons test",[1]; Y433F+/-:vehicle minus Y433F+/-:treatment,-2.791
same,dendritic arbor complexity,[1]; cultures from WT mice,enhance dendritic arbor complexity
same,dendritic arbor complexity,[1]; cultures from Y433F^+/− mice,not Y433F^+/− mice
same,"dendritic arbor complexity, Mean Diff. (Vehicle:vehicle vs. group)","[1]; fig 6i, Bonferroni's multiple comparisons test",-41.23
same,"dendritic arbor complexity, group mean (Mean 2)","[1]; fig 6i, treatment:pretreatment groups, Vehicle:vehicle mean 69.72",110.9
same,"Sholl analysis, Mean at distance from soma","[1]; fig 6j, distance from soma 10 µm",8.895
same,"Sholl analysis, Mean at distance from soma","[1]; fig 6j, distance from soma 15 µm",10.2632
same,"Sholl analysis, Mean at distance from soma","[1]; fig 6j, distance from soma 20 µm",10.421
same,"Sholl analysis, Mean at distance from soma","[1]; fig 6j, distance from soma 25 µm",9.211
same,"Sholl analysis, Mean at distance from soma","[1]; fig 6j, distance from soma 30 µm",8.842
same,"Sholl analysis, Mean at distance from soma","[1]; fig 6j, distance from soma 35 µm",8.316
same,"Sholl analysis, Mean at distance from soma","[1]; fig 6j, distance from soma 40 µm",6.789
same,"Sholl analysis, Mean at distance from soma","[1]; fig 6j, distance from soma 45 µm",6.368
same,"Sholl analysis, Mean at distance from soma","[1]; fig 6j, distance from soma 50 µm",6.368
same,"Sholl analysis, Mean at distance from soma","[1]; fig 6j, distance from soma 55 µm",4.737
same,"Sholl analysis, Mean at distance from soma","[1]; fig 6j, distance from soma 60 µm",4.526
same,"Sholl analysis, Mean at distance from soma","[1]; fig 6j, distance from soma 65 µm",3.895
same,"Sholl analysis, Mean at distance from soma","[1]; fig 6j, distance from soma 70 µm",3.526
same,"Sholl analysis, Mean at distance from soma","[1]; fig 6j, distance from soma 75 µm",3.158
same,"Sholl analysis, Mean at distance from soma","[1]; fig 6j, distance from soma 80 µm",3.158
same,"Sholl analysis, Mean at distance from soma","[1]; fig 6j, distance from soma 85 µm",3.316
same,"Sholl analysis, Mean at distance from soma","[1]; fig 6j, distance from soma 90 µm",3.105
same,"Sholl analysis, Mean at distance from soma","[1]; fig 6j, distance from soma 95 µm",3.211
same,"Sholl analysis, Mean at distance from soma","[1]; fig 6j, distance from soma 100 µm",2.842
same,"Sholl analysis, Mean at distance from soma","[1]; fig 6h, distance from soma 25 µm",4.059
same,"Sholl analysis, Mean at distance from soma","[1]; fig 6h, distance from soma 30 µm",3.529
same,"Sholl analysis, Mean at distance from soma","[1]; fig 6h, distance from soma 35 µm",3
same,"Sholl analysis, Mean at distance from soma","[1]; fig 6h, distance from soma 40 µm",3.059
same,"Sholl analysis, Mean at distance from soma","[1]; fig 6h, distance from soma 45 µm",2.412
same,"Sholl analysis, Mean at distance from soma","[1]; fig 6h, distance from soma 50 µm",2.471
same,"Sholl analysis, Mean at distance from soma","[1]; fig 6h, distance from soma 55 µm",2.294
same,"Sholl analysis, Mean at distance from soma","[1]; fig 6h, distance from soma 60 µm",1.882
same,"Sholl analysis, Mean at distance from soma","[1]; fig 6h, distance from soma 65 µm",1.765
same,"Sholl analysis, Mean at distance from soma","[1]; fig 6h, distance from soma 70 µm",1.294
same,"Sholl analysis, Mean at distance from soma","[1]; fig 6h, distance from soma 75 µm",1.353
same,"Sholl analysis, Mean at distance from soma","[1]; fig 6h, distance from soma 80 µm",1.353
same,"Sholl analysis, Mean at distance from soma","[1]; fig 6h, distance from soma 85 µm",1
same,"Sholl analysis, Mean at distance from soma","[1]; fig 6h, distance from soma 90 µm",1.059
same,"Sholl analysis, Mean at distance from soma","[1]; fig 6h, distance from soma 95 µm",1
same,"Sholl analysis, Mean at distance from soma","[1]; fig 6h, distance from soma 100 µm",0.7059
same,6h: Mean (Sholl analysis),"[1]; first 6h table (N as WT), distance from soma 10 µm",6.789
same,6h: Mean (Sholl analysis),"[1]; first 6h table (N as WT), distance from soma 15 µm",8.684
same,6h: Mean (Sholl analysis),"[1]; first 6h table (N as WT), distance from soma 20 µm",8.526
same,6h: Mean (Sholl analysis),"[1]; first 6h table (N as WT), distance from soma 25 µm",6.474
same,6h: Mean (Sholl analysis),"[1]; first 6h table (N as WT), distance from soma 30 µm",6
same,6h: Mean (Sholl analysis),"[1]; first 6h table (N as WT), distance from soma 35 µm",5.211
same,6h: Mean (Sholl analysis),"[1]; first 6h table (N as WT), distance from soma 40 µm",3.632
same,6h: Mean (Sholl analysis),"[1]; first 6h table (N as WT), distance from soma 45 µm",3.474
same,6h: Mean (Sholl analysis),"[1]; first 6h table (N as WT), distance from soma 50 µm",3
same,6h: Mean (Sholl analysis),"[1]; first 6h table (N as WT), distance from soma 55 µm",2.684
same,6h: Mean (Sholl analysis),"[1]; first 6h table (N as WT), distance from soma 60 µm",3.105
same,6h: Mean (Sholl analysis),"[1]; first 6h table (N as WT), distance from soma 65 µm",2.579
same,6h: Mean (Sholl analysis),"[1]; first 6h table (N as WT), distance from soma 70 µm",2.421
same,6h: Mean (Sholl analysis),"[1]; first 6h table (N as WT), distance from soma 75 µm",2.263
same,6h: Mean (Sholl analysis),"[1]; first 6h table (N as WT), distance from soma 80 µm",2.421
same,6h: Mean (Sholl analysis),"[1]; first 6h table (N as WT), distance from soma 85 µm",2
same,6h: Mean (Sholl analysis),"[1]; first 6h table (N as WT), distance from soma 90 µm",2.421
same,6h: Mean (Sholl analysis),"[1]; first 6h table (N as WT), distance from soma 95 µm",1.632
same,6h: Mean (Sholl analysis),"[1]; first 6h table (N as WT), distance from soma 100 µm",1.789
same,6h: Mean (Sholl analysis),"[1]; second 6h table (N as Y433F), distance from soma 10 µm",5.294
same,6h: Mean (Sholl analysis),"[1]; second 6h table (N as Y433F), distance from soma 15 µm",4.941
same,6h: Mean (Sholl analysis),"[1]; second 6h table (N as Y433F), distance from soma 20 µm",4.765
